The values below come from patent publication US20150336977A1 (B.G. NEGEV TECHNOLOGIES AND APPLICATIONS LTD., priority 2013, published 2015).

This experiment has as its system MCF-7 cells. The experiment can be described thus: MTT proliferation assay in estrogen-dependent MCF-7 breast cancer cells. Type of experiment: cell-based. The settings on record: for estrogenic activity relative to natural compound 1: comparison with coumestrol (compound 1). The procedure: MCF-7 cells and MDA-MB-231 cells were maintained in Costar T75 flasks with Dulbeccos Modified Eagle Medium (DMEM) supplemented with 2 mM glutamine and 10% fetal bovine serum (Biological Industries Beit Haemek, LTD).
To deplete cells of estrogens, they were passaged for 1 week in phenol red-free DMEM supplemented with 10% estrogen-depleted calf serum (DCS/MEM) which was made by sequential treatment of calf serum with sulfatase and dextran-coated charcoal (Biological Industries Beit Haemek, LTD).
MCF-7 and MDA-MB-231 cells were plated in 96 well dishes (Costar) at approximately 5,000 cells/well and 2500 cells/well respectively in 100 ul medium. One day after plating (Day 0) 100 μl of the treatment media were added.
Final volume in each well was 200 μl. Each chemical was diluted to a final concentration of 10^−3M. At day 0 compounds 1 and 8b-8m (table 1) were diluted aside and 100 μl from each dilution were added to each well. The following dilution steps were performed: 2×10^−6M (4 μl of 10^−3M in 2 mL), 2×10^−7 M (200 μl of 2×10^−6M in 2 mL), 2×10^−8M (200 μl of 2×10^−7M in 2 mL) and 2×10^−9M (200 μl of 2×10^−8M in 2 mL).
Cell proliferation was quantified by colorimetric MTT assay. The use and validity of the MTT assay in MCF-7 cells is described by Martikainen et al.
Measurement of cell viability and proliferation were based on the reduction of tetrazolium salts using the MTT kit (Biological Industries Beit Haemek, LTD) according to the manufacturer instructions. The yellow tetrazolium MTT (3-(4,5-dimethylthiazolyl-2)-2,5-diphenyltetrazolium bromide) is reduced by metabolically active cells, in part by the action of dehydrogenase enzymes, to generate reducing equivalents such as NADH and NADPH. The resulting intracellular purple formazan can be solubilized and quantified by spectrophotometric means. The MTT Reagent yields low background absorbance values in the absence of cells. MTT assay was used to evaluate cell number in each well.
For orientation: Tetrazolium dyes change colour on reduction, which living cells bring about.

Setting [1] is: Homo sapiens, MCF7, cell proliferation effect on MCF-7 cell line (estrogen dependent cells), MTT, NA = Not Active, read-out: IC50.
Where [2] appears, read: Homo sapiens, MCF7, MCF-7 breast cancer cells, read-out: IC50 value.

Like-named read-outs stand apart in the source and are kept apart here.

As usually defined, the IC50 is the concentration needed to halve the response being measured. For the compound `O=c1oc2cc(O)ccc2c2oc3cc(O)ccc3c12` [Compound 1, coumestrol], the IC50 (cell proliferation effect on MCF-7 cell line (estrogen dependent cells), MTT, NA = Not Active, read-out: IC50) amounted to 73 nM. Take `O=c1oc2ccccc2c2oc3ccccc3c12` [Compound 8b]: the “estrogenic activity relative to natural compound 1” value is recorded as “at least one order of magnitude less active”. Turning to `O=c1oc2cc(O)ccc2c2oc3cc(O)c(O)cc3c12` [Compound 8c, 8-hydroxycoumestrol], the “estrogenic activity relative to natural compound 1” value is listed as “at least one order of magnitude less active”. Consider `O=c1oc2ccccc2c2oc3cc(O)ccc3c12` [Compound 8d, 3-hydroxycoumestn], for which the “estrogenic activity relative to natural compound 1” value is recorded as “at least one order of magnitude less active”. Also, the “proliferative effect on the MCF-7 cells” value (ER-positive breast cancer line MCF-7, result in words) is reported as “did not showed any proliferative effect”. In addition, the IC50 under setting [1] was found to be 568 nM. With `O=c1oc2cc(O)ccc2c2oc3ccc(O)cc3c12` [Compound 8f], the “estrogenic activity relative to natural compound 1” value is recorded as “at least one order of magnitude less active”. With `CC(=O)Nc1ccc2c(c1)oc1c3ccc(O)cc3oc(=O)c21` [Compound 8g], the IC50 reads like this: under setting [2], 30 nM; under setting [1], 30 nM.

For the compound `CC(=O)Nc1ccc2oc3c4ccc(O)cc4oc(=O)c3c2c1` [Compound 8h, 8-acetamidecoumestrol], the IC50 is < 1 nM under setting [2] and 9 nM under setting [1]. The matching figures for `O=c1oc2cc(O)ccc2c2oc3ccc(Br)cc3c12` [Compound 8i]: 107 nM and 107 nM. In the case of `O=c1oc2cc(O)ccc2c2oc3ccc(F)cc3c12` [Compound 8j], the IC50 under setting [1] came out at 220 nM.

Consider `CCOC(=O)c1ccc2oc3c4ccc(O)cc4oc(=O)c3c2c1` [Compound 8k], for which the half-inhibitory concentration (IC50) runs as follows: under setting [2], 58 nM; under setting [1], 58 nM. Regarding `O=c1oc2cc(O)ccc2c2oc3ccc(C(F)(F)F)cc3c12` [Compound 8l, 3-trifluoromethylcoumestrol], the IC50 runs as follows: under setting [2], 170 nM; under setting [1], 170 nM. For the compound `O=c1oc2cc(O)ccc2c2oc3ccc4ccccc4c3c12` [Compound 8m, napthocoumestrol], the 50% inhibitory concentration (IC50) amounted to 180 nM under setting [2] and 180 nM under setting [1].
